Experiment [1] deals with T1, DPS (deoxypodophyllotoxin synthase) (Sinopodophyllum hexandrum, UniProt A0A0N9HQ36). The note with it: co-substrate; Fe bound, bidentate, offline mode; pH 8.5.
For experiment [2], the target named is T1, DPS (deoxypodophyllotoxin synthase). Particulars: coproduct at Fe active site, with Fe and (±)-yatein; pH 7.5.

SMILES strings stand for the structures.

T1 sequence (A0A0N9HQ36 whole entry): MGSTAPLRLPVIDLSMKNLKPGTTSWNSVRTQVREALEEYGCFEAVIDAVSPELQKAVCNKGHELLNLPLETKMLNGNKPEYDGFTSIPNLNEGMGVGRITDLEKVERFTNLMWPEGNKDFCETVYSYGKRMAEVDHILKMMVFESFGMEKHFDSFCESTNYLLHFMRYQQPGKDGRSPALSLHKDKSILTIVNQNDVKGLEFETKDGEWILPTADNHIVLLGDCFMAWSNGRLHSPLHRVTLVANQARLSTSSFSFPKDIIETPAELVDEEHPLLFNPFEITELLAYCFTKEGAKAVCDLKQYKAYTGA

Take `O=C(O)CCC(=O)C(=O)O` [2OG]: in experiment [1], the “X-ray crystal structure, 2.09 A” value is listed as “Overall structure of the DPS•Fe•2OG ternary complex (Protein Data Bank identification: 7E37)”.
Turning to `O=C(O)CCC(=O)O` [succinate], the “X-ray crystal structure, 2.05 A” value in experiment [2] was “The substrate (−)-6a and the coproduct succinate are shown in stick representation”.
